Measurements as given in article PMC7405012, “Detection of Chaetomium globosum, Ch. cochliodes and Ch. rectangulare during the Diversity Tracking of Mycotoxin-Producing Chaetomium-like Isolates Obtained in Buildings in Finland” (Toxins, 2020).
Values after ≈ are worked out from the molar mass of the structure shown. Where two headings read alike, the source gives them in different places.

Assays:
[1] = tested on: Indoor Trichoderma atroviride Ke14; assay: Resistance to biocides: conidial germination; format: cell-based; settings: strain Ke14, indoor Trichoderma atroviride
Experimental: (§1) The toxicity of biocides and chemicals towards the indoor Chaetomium-like isolates and the reference indoor strains of the genera Aspergillus, Paecilomyces, Penicillium and Trichoderma was assessed in parallel with the six parameters presented in the Supplementary Materials: (1) germ tube assay (Figure S3); (2) estimation of turbidity (Figure S4); (3) visual emission of fluorescence (excitation at 360 nm); (4) visual resporulation of conidia; (5) inhibition of glucose consumption; and (6) resazurin reduction. All assays were performed in malt extract broth (12 g L^−1 malt extract, 7.2 µmol mL^−1 glucose, pH 5.5; Scharlab, Barcelona, Spain) in 96-well microtiter plates as described for the ICP assay.
(§2) The assays measuring inhibition of germination of conidia were done with spore suspensions of 1–2 × 10^6 fungal spores mL−^1. The tests were performed in malt extract broth (Oxoid, Hampshire United Kingdom) 12 g in 1 L, pH 5.5, glucose 7.1 mmol L^−1, and performed on microtiter plates as described by Bencsik et al. for the ICP assay. The germ tube germination is visualized in Figure S3, and the tests estimating turbidity and emission of fluorescence provoked by the germinated and metabolically active conidia and C. globosum ascospores are visualized in Figures S4 and S5. Examples of the tests estimating fluorescence emission, turbidity and re-sporulation of conidia and ascospores are compared in Figure S5. The difference of the endpoints measured with the different assays was between […]. The resazurin reduction assays (Figure S6) were performed as described for the ICP assay, except that the microtiter plates were visually inspected for the change of the blue/violet color of resazurin (indicating inhibition of germination of the exposed conidia) to the […] (indicating metabolic activity and germination of the exposed conidia).
(§3) The formation of germ tubes was inspected by a phase-contrast microscope (Olympus CKX41, Tokyo, Japan; magnification 400×) and an image recording software (Cellsense® standard version 11.0.06, Olympus Soft Imaging Solutions GmbH, Münster, Germany, 2012) after 1 and 2 days of incubation at 28 °C. The EC50 corresponded to the inhibition of 50% (estimated as the concentration between EC0 and EC100) of the conidia compared to the ethanol control (the growth medium containing 1% of ethanol). The tests were run in triplicate and calibrated with triclosan (CAS: 3380-34-5; Sigma Chemical Co., St. Louis, MO, USA) giving a mean SD of ±<20%.

Penicillium sp. 35/skk = assay: Resistance to biocides: conidial germination; format: cell-based; settings: strain 35/skk, indoor Penicillium sp.
Experimental: as §1, §2, §3

Penicillium sp. HJ2 = assay: Resistance to biocides: conidial germination; format: cell-based; settings: strain HJ2, indoor Penicillium sp.
Experimental: as §1, §2, §3

[2] = tested on: Paecilomyces sp. Pec1/his; assay: Resistance to biocides: conidial germination; format: cell-based; settings: strain Pec1/his, indoor Paecilomyces sp.
Experimental: as §1, §2, §3

Penicillium sp. 26/skk = assay: Resistance to biocides: conidial germination; format: cell-based; settings: strain 26/skk, indoor Penicillium sp.
Experimental: as §1, §2, §3

[3] = tested on: Outdoor Chaetomium-like strain CH1/tu; assay: Resistance to biocides: ascospore germination; format: cell-based, Unidentified Chaetomium-like strain
Experimental: as §1
The assays measuring inhibition of germination of conidia were done with spore suspensions of 1–2 × 10^6 fungal spores mL−^1. […] The germ tube germination is visualized in Figure S3, and the tests estimating turbidity and emission of fluorescence provoked by the germinated and metabolically active conidia and C. globosum ascospores are visualized in Figures S4 and S5. Examples of the tests estimating fluorescence emission, turbidity and re-sporulation of conidia and ascospores are compared in Figure S5. The difference of the endpoints measured with the different assays was between 38% and <28.5%. […]

[4] = tested on: Outdoor T. atroviride SZMC 12474; assay: Resistance to biocides: conidial germination; format: cell-based, Trichoderma atroviride; settings: strain SZMC 12474, outdoor T. atroviride
Experimental: as §1, §2, §3

[5] = tested on: Outdoor T. atroviride SZMC 1723; assay: Resistance to biocides: conidial germination; format: cell-based, Trichoderma atroviride; settings: strain SZMC 1723, outdoor T. atroviride
Experimental: as §1, §2, §3

[6] = tested on: Outdoor T. atroviride SZMC 207080; assay: Resistance to biocides: conidial germination; format: cell-based, Trichoderma atroviride; settings: strain SZMC 207080, outdoor T. atroviride
Experimental: as §1, §2, §3

[7] = tested on: Outdoor T. atroviride SZMC 12541; assay: Resistance to biocides: conidial germination; format: cell-based, Trichoderma atroviride; settings: strain SZMC 12541, outdoor T. atroviride
Experimental: as §1, §2, §3

[8] = tested on: Outdoor T. atroviride SZMC 12323; assay: Resistance to biocides: conidial germination; format: cell-based, Trichoderma atroviride; settings: strain SZMC 12323, outdoor T. atroviride
Experimental: as §1, §2, §3

[9] = tested on: Outdoor T. atroviride SZMC 12516; assay: Resistance to biocides: conidial germination; format: cell-based, Trichoderma atroviride; settings: strain SZMC 12516, outdoor T. atroviride
Experimental: as §1, §2, §3

Ch. cochliodes OT7b = assay: Resistance to biocides: ascospore germination; format: cell-based; settings: strain OT7b, indoor Ch. cochliodes
Experimental: as §1, §2, §3

Ch. cochliodes OT7 = assay: Resistance to biocides: ascospore germination; format: cell-based; settings: strain OT7, indoor Ch. cochliodes
Experimental: as §1, §2, §3

Ch. rectangulare Mo13 = assay: Resistance to biocides: ascospore germination; format: cell-based
Experimental: as §1, §2, §3

Ch. rectangulare M015 = assay: Resistance to biocides: ascospore germination; format: cell-based; settings: strain M015, indoor Ch. rectangulare
Experimental: as §1, §2, §3

[10] = Trichoderma atroviride, read-out: EC50

Compound	EC50 ([1]; read-out: EC50) [µg/mL]	EC50 (Penicillium sp. 35/skk; SP.35/SKK, read-out: EC50) [µg/mL]	EC50 (Penicillium sp. HJ2; read-out: EC50) [µg/mL]	EC50 ([2]; read-out: EC50) [µg/mL]	EC50 (Penicillium sp. 26/skk; SP.26/SKK, read-out: EC50) [µg/mL]	EC50 [4, 10] [µg/mL]	EC50 [5, 10] [µg/mL]	EC50 [6, 10] [µg/mL]	EC50 [7, 10] [µg/mL]	EC50 [8, 10] [µg/mL]	EC50 [9, 10] [µg/mL]	EC50 (Ch. cochliodes OT7b; read-out: EC50) [µg/mL]	EC50 (Ch. cochliodes OT7; read-out: EC50) [µg/mL]	EC50 (Ch. rectangulare M015; read-out: EC50) [µg/mL]	EC50 (Penicillium sp. 35/skk) [µg/mL]	EC50 (Penicillium sp. 26/skk) [µg/mL]	EC50 [4] [µg/mL]	EC50 [5] [µg/mL]	EC50 [6] [µg/mL]	EC50 [7] [µg/mL]	also measured
O=BOB(O)OB(O)OB=O [Borax, sodium tetraborate]	1200	5000	2500	≥ 5000	> 5000	2500	1200	1200	1200	1200	2500	750	750	5000	–	–	–	–	–	–	EC50 ([3]; read-out: EC50): 1200 µg/mL; EC50 (Ch. rectangulare Mo13): > 5000 µg/mL
polyhexamethylene biguanide hydrochloride [PHMB]	–	–	–	–	–	–	–	–	–	–	–	–	–	–	30	30	4	8	8	2	EC50 [1]: 4 µg/mL; EC50 (Penicillium sp. HJ2): 1 µg/mL; EC50 [2]: 30 µg/mL; EC50 [3]: 4 µg/mL; EC50 [8]: 8 µg/mL; EC50 [9]: 30 µg/mL; EC50 (Ch. cochliodes OT7b): 8 µg/mL; EC50 (Ch. cochliodes OT7): 8 µg/mL; EC50 (Ch. rectangulare Mo13; strain Mo13, indoor Ch. rectangulare): 4 µg/mL; EC50 (Ch. rectangulare M015): 4 µg/mL
NCl [Chloramine, chloramine]	–	–	–	–	–	–	–	–	–	–	–	–	–	–	600 (≈ 11.7 mM)	600 (≈ 11.7 mM)	2500 (≈ 48.6 mM)	2500 (≈ 48.6 mM)	2500 (≈ 48.6 mM)	2500 (≈ 48.6 mM)	EC50 [8]: 2500 µg/mL (≈ 48.6 mM); EC50 [9]: 2500 µg/mL (≈ 48.6 mM); EC50 (Ch. rectangulare M015): 1200 µg/mL (≈ 23.3 mM)
OCCOc1ccccc1 [Phenoxy-ethanol, phenoxyethanol]	1500 (≈ 10.9 mM)	350 (≈ 2.53 mM)	800 (≈ 5.79 mM)	3000 (≈ 21.7 mM)	3000 (≈ 21.7 mM)	3000 (≈ 21.7 mM)	1500 (≈ 10.9 mM)	3000 (≈ 21.7 mM)	1500 (≈ 10.9 mM)	1500 (≈ 10.9 mM)	1500 (≈ 10.9 mM)	3000 (≈ 21.7 mM)	3000 (≈ 21.7 mM)	1500 (≈ 10.9 mM)	–	–	–	–	–	–	–
Oc1cc(Cl)ccc1Oc1ccc(Cl)cc1Cl [Triclosan, 5-Chloro-2-(2,4-dichlorophenoxy)phenol]	16 (≈ 0.0553 mM)	–	8 (≈ 0.0276 mM)	30 (≈ 0.104 mM)	30 (≈ 0.104 mM)	8 (≈ 0.0276 mM)	16 (≈ 0.0553 mM)	8 (≈ 0.0276 mM)	16 (≈ 0.0553 mM)	30 (≈ 0.104 mM)	16 (≈ 0.0553 mM)	4 (≈ 0.0138 mM)	4 (≈ 0.0138 mM)	2 (≈ 0.00691 mM)	–	–	–	–	–	–	–
